Bounds are passed on as bounds.

Data set [1] concerns the target T1, Cholecystokinin receptor type A (Rattus norvegicus) (UniProt P30551).
T1 sequence (whole entry): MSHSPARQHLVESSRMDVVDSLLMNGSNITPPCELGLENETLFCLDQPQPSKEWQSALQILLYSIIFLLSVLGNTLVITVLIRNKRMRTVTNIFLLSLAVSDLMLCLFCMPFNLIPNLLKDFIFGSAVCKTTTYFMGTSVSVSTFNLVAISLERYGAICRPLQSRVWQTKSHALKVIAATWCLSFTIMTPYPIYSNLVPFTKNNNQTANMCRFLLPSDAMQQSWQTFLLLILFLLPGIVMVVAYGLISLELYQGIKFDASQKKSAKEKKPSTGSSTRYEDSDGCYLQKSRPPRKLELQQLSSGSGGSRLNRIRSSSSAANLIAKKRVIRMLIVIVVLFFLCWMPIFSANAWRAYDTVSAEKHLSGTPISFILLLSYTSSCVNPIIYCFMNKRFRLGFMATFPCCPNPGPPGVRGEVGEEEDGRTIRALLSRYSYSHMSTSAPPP
Description: (§1) Inhibition of binding of [125I]CCK-8 to cholecystokinin type A receptor in rat pancreatic tissue. More on the design: concentration or dose not given beside the values. The note with it: concentration not given here.

A further data set is filed under the species Cavia porcellus. Description: Selectivity ratio between CCK-B and CCK-A receptor. More on the design: reference not given here.
The nature of data set [2]: Bioavailability in rat after 30 minutes at an oral dose of 2.5 mg/kg. The note with it: plasma. The class given is ADME, organism-based.
Data set [3] deals with T2, Cholecystokinin receptor type A (Rattus norvegicus, UniProt P30551).
T2 sequence (P30551 whole entry): T1 sequence (whole entry)
Described as §1.

Data set [4] can be described thus: Bioavailability in rat after 120 minutes at an oral dose of 2.5 mg/kg. The class given is ADME, organism-based. Conditions: plasma.

The inhibition is the change of the read-out against control, counted positive when it falls. For `CN1C(=O)C(NC(=O)Nc2ccc3c(c2)OCO3)N=C(c2ccccc2)c2ccccc21` (stereo not given), the inhibition in data set [1] is more than 3%. Also, the Selectivity ratio in the data set filed under Cavia porcellus was more than 100.
The corresponding values for `CN1C(=O)C(NC(=O)Nc2ccc(Cl)nc2)N=C(c2ccccc2)c2ccccc21` (stereo not given) are 23% and more than 65.
One may read the IC50 as the concentration that gives 50% inhibition. For the compound `Cc1cccc(NC(=O)NC2N=C(c3ccccc3)c3ccccc3N(CCN(C)C)C2=O)c1` (racemic), the concentration at 0.5 h in data set [2] was determined as 75 ng/mL. In data set [3], this compound yielded an IC50 of 1890 nM. Also, in the data set listed under Cavia porcellus, the Selectivity ratio is 73.
`O=C(Nc1ccc(Cl)cc1)NC1N=C(c2ccccc2)c2ccccc2N(C[C@@H](O)CCl)C1=O` (mixture of isomers) showed an inhibition in data set [1] of more than 15%. Further, in the data set listed under Cavia porcellus, the Selectivity ratio is more than 500.
In data set [3], `CN1C(=O)[C@H](NC(=O)Nc2cccc(I)c2)N=C(c2ccccc2)c2ccccc21` returned an IC50 of 800 nM. Moreover, in the data set listed under Cavia porcellus, the Selectivity ratio came out at 116.
The corresponding values for `Cc1ccc(NC(=O)NC2N=C(c3ccccc3)c3ccccc3N(CC(=O)Nc3ccncc3)C2=O)cc1` (racemic) are 4000 nM and 21.
For the compound `CCN(CC)C(=O)CN1C(=O)C(NC(=O)Nc2cccc(C)c2)N=C(c2ccccn2)c2ccccc21` (racemic), the half-inhibitory concentration (IC50) in data set [3] amounted to 435 nM. Further, in the data set filed under Cavia porcellus, the Selectivity ratio was found to be 776.
The corresponding values for `CN1C(=O)C(NC(=O)Nc2cccc(CC(=O)O)c2)N=C(c2ccccc2)c2ccccc21` (stereo not given) are 61 nM and 12.
The like results for `CN1C(=O)C(NC(=O)Nc2cccnc2)N=C(c2ccccc2)c2ccccc21` (racemic) were, in that order, 120 nM and 0.4.
Compound `Cc1cccc(NC(=O)NC2N=C(c3ccccc3)c3ccccc3N(CC(=O)Nc3ccncc3)C2=O)c1` (racemic) displayed an IC50 in data set [3] of 1100 nM. In addition, the Selectivity ratio in the data set listed under Cavia porcellus is 23.
The like results for `CCOC(=O)CCN1C(=O)C(NC(=O)Nc2cccc(OC)c2)N=C(c2ccccc2)c2ccccc21` (racemic) were, in that order, 340 nM and 340.
The like results for `CN1C(=O)[C@H](NC(=O)Nc2cccc(CN)c2)N=C(c2ccccc2)c2ccccc21` were, in that order, 160 nM and 0.22.
`CN1C(=O)C(NC(N)=O)N=C(c2ccccc2)c2ccccc21` (racemic) registered an IC50 in data set [3] of 55000 nM. For the same compound, the Selectivity ratio in the data set listed under Cavia porcellus is more than 0.5.
Compound `COC(=O)[C@H]1CCCN1OC(=O)CN1C(=O)C(NC(=O)Nc2cccc(OC)c2)N=C(c2ccccc2)c2ccccc21` (mixture of isomers) had a concentration for half-maximal inhibition (IC50) in data set [3] of 1400 nM. The Selectivity ratio in the data set listed under Cavia porcellus worked out at 144.
The corresponding values for `CN1C(=O)[C@@H](NC(=O)c2ccc(C(F)(F)F)cc2)N=C(c2ccccc2)c2ccccc21` are 1300 nM and 0.3.
`Cc1cccc(NC(=O)N[C@@H]2N=C(c3ccccc3)c3ccccc3N(C)C2=O)c1` [L-365260] had a concentration at 0.5 h in data set [2] of 172 ng/mL. Besides, the concentration at 2 h in data set [4] came out at 194 ng/mL.
Compound `COc1ccc(NC(=O)NC2N=C(c3ccccc3)c3ccccc3N(C)C2=O)cc1` (racemic) had an IC50 in data set [3] of 165 nM. In addition, in the data set listed under Cavia porcellus, the Selectivity ratio is 6.
As for `COc1cccc(NC(=O)NC2N=C(c3ccccc3)c3ccccc3N(CC[N+](C)(C)C)C2=O)c1` (racemic), the concentration for half-maximal inhibition (IC50) in data set [3] was found to be 17000 nM. Further, the Selectivity ratio in the data set listed under Cavia porcellus is 15.
The like results for `CN1C(=O)C(NC(=O)Nc2ccc(C(F)(F)F)cc2)N=C(c2ccccc2)c2ccccc21` (stereo not given) were, in that order, 1300 nM and 228.
The like results for `CN1C(=O)C(NC(=O)Nc2cccc(C(=O)O)c2)N=C(c2ccccc2)c2ccccc21` (racemic) were, in that order, 14 nM and 1.4.
Take `O=C(Nc1ccc(Cl)cc1)NC1N=C(c2ccccc2)c2ccccc2NC1=O` (racemic): the IC50 in data set [3] amounted to 110 nM. For the same compound, the Selectivity ratio in the data set filed under Cavia porcellus was 0.4.
In data set [3], `CC(=O)Oc1cccc(NC(=O)N[C@@H]2N=C(c3ccccc3)c3ccccc3N(C)C2=O)c1` gave a concentration for half-maximal inhibition (IC50) of 6600 nM. The Selectivity ratio in the data set filed under Cavia porcellus amounted to 13.
In turn, `CCN(CC)C(=O)CN1C(=O)C(NC(=O)Nc2cccc(OC)c2)N=C(c2ccccc2)c2ccccc21` (racemic) registered an IC50 in data set [3] of 120 nM. In the data set filed under Cavia porcellus, the Selectivity ratio was found to be 545.
The corresponding values for `O=C(Nc1ccc(Cl)cc1)N[C@H]1N=C(c2ccccc2)c2ccccc2N(CC(=O)N2CCCC2)C1=O` are 2500 nM and 192.
The corresponding values for `CN1C(=O)C(NC(=O)Nc2cccc3ccccc23)N=C(c2ccccc2)c2ccccc21` (racemic) are 68 nM and 0.9.
The like results for `CCN(CC)C(=O)CN1C(=O)C(NC(=O)Nc2ccccc2Cl)N=C(c2ccccc2)c2ccccc21` (racemic) were, in that order, 200 nM and 53.
In data set [3], `CN1C(=O)C(NC(=O)Nc2ccc3c(c2)CCC3)N=C(c2ccccc2)c2ccccc21` (stereo not given) came in with a concentration for half-maximal inhibition (IC50) of 900 nM. Further, the Selectivity ratio in the data set filed under Cavia porcellus was found to be 333.
The corresponding values for `CN1C(=O)C(NC(=O)NCc2cccc(C(C)(C)O)c2)N=C(c2ccccc2)c2ccccc21` (stereo not given) are 406 nM and 69.
The like results for `CN1C(=O)C(NC(=O)Nc2ccc(N)nc2)N=C(c2ccccc2)c2ccccc21` (stereo not given) were, in that order, 3000 nM and 6.
The like results for `Cc1cccc(NC(=O)NC2N=C(c3ccccc3)c3ccccc3N(CC(=O)N3CCN(C)CC3)C2=O)c1` (racemic) were, in that order, 760 nM and 217.
`Cc1cccc(NC(=O)NC2N=C(c3ccncc3)c3ccccc3N(C)C2=O)c1` (racemic) registered a half-inhibitory concentration (IC50) in data set [3] of 390 nM. The Selectivity ratio in the data set listed under Cavia porcellus is 7.5.
Compound `O=C(Nc1ccc(Cl)cc1)NC1N=C(c2ccccc2)c2ccccc2N(C[C@@H](O)CN2CCCC2)C1=O` (mixture of isomers) had an inhibition in data set [1] of more than 16%. The Selectivity ratio in the data set filed under Cavia porcellus was more than 10.
In data set [3], `O=C(Nc1ccc(Cl)cc1)N[C@@H]1N=C(c2ccccc2)c2ccccc2N(CC(=O)N2CCCC2)C1=O` registered an IC50 of 900 nM. The Selectivity ratio in the data set filed under Cavia porcellus turned out to be 643.
The corresponding values for `Cc1cccc(NC(=O)NC2N=C(c3ccccc3)c3ccccc3N(CCOC(=O)CCC(=O)O)C2=O)c1` (racemic) are 37 nM and 5.
In data set [1], `CCN(CC)C[C@H](O)CN1C(=O)C(NC(=O)Nc2ccc(Cl)cc2)N=C(c2ccccc2)c2ccccc21` (mixture of isomers) gave an inhibition of more than 14%. The Selectivity ratio in the data set listed under Cavia porcellus is more than 7.
With `COc1cccc(NC(=O)NC2N=C(c3ccccc3)c3ccccc3N(CCN(C)C)C2=O)c1` (racemic), the IC50 in data set [3] was 3090 nM. For the same compound, the Selectivity ratio in the data set listed under Cavia porcellus stood at 16.
The like results for `Cc1cccc(NC(=O)NC2N=C(c3ccccc3)c3ccccc3N(CC(=O)ON3CCC[C@@H]3C(=O)O)C2=O)c1` (mixture of isomers) were, in that order, 20000 nM and 15.
The compound `O=C(Nc1ccc(Cl)cc1)NC1N=C(c2ccccc2)c2ccccc2N(C[C@@H](O)CO)C1=O` (mixture of isomers) displayed an inhibition in data set [1] of more than 9%. The Selectivity ratio in the data set filed under Cavia porcellus is more than 30.
As for `Cc1cccc(NC(=O)NC2N=C(c3ccccc3)c3cccnc3N(C)C2=O)c1` (racemic), the half-maximal inhibitory concentration (IC50) in data set [3] came to 104 nM. The Selectivity ratio in the data set filed under Cavia porcellus was less than 0.01.
The like results for `CN1C(=O)[C@@H](NC(=O)Nc2ccccc2Cl)N=C(c2ccccc2)c2ccccc21` were, in that order, 0.26 nM and less than 0.01.
The like results for `COC(=O)c1cccc(NC(=O)N[C@@H]2N=C(c3ccccc3)c3ccccc3N(C)C2=O)c1` were, in that order, 1200 nM and 150.
The like results for `Cc1cccc(NC(=O)NC2N=C(c3ccccc3)c3ccncc3N(C)C2=O)c1` (racemic) were, in that order, 144 nM and less than 0.01.
Compound `CN1C(=O)C(NC(=O)Nc2ccc3ncccc3c2)N=C(c2ccccc2)c2ccccc21` (racemic) displayed a concentration for half-maximal inhibition (IC50) in data set [3] of 310 nM. In the data set filed under Cavia porcellus, the Selectivity ratio was found to be 6.
The corresponding values for `Cc1cccc(NC(=O)NC2N=C(c3ccccn3)c3ccccc3N(C)C2=O)c1` (stereo not given) are 65 nM and 1.
The like results for `CN1C(=O)C(NC(=O)Nc2ccncc2)N=C(c2ccccc2)c2ccccc21` (racemic) were, in that order, 1510 nM and 1.4.
The corresponding values for `CC(=O)c1cccc(NC(=O)NC2N=C(c3ccccc3)c3ccccc3N(C)C2=O)c1` (stereo not given) are 1300 nM and 361.
Regarding `CN1C(=O)[C@H](NC(=O)Nc2cccc(O)c2)N=C(c2ccccc2)c2ccccc21`, the half-inhibitory concentration (IC50) in data set [3] came to 60 nM. Also, the Selectivity ratio in the data set filed under Cavia porcellus amounted to 1.
The corresponding values for `CCOC(=O)CN1C(=O)C(NC(=O)N[C@@H](C)c2ccccc2)N=C(c2ccccc2)c2ccccc21` (mixture of isomers) are 4800 nM and less than 48.
`CN1C(=O)C(NC(=O)Nc2ccccn2)N=C(c2ccccc2)c2ccccc21` (racemic) had an IC50 in data set [3] of 447 nM. Besides, the Selectivity ratio in the data set filed under Cavia porcellus worked out at 1.3.
The corresponding values for `CN1C(=O)C(NC(=O)Nc2cccc(CNC(=O)OC(C)(C)C)c2)N=C(c2ccccc2)c2ccccc21` (stereo not given) are 200 nM and 1.
The like results for `CN1C(=O)C(NC(=O)Nc2cccc(-c3ccccc3)c2)N=C(c2ccccc2)c2ccccc21` (racemic) were, in that order, 123 nM and 1.
As for `Cc1cc(C)cc(NC(=O)NC2N=C(c3ccccc3)c3ccccc3N(C)C2=O)c1` (stereo not given), the IC50 in data set [3] came out at 720 nM. For the same compound, in the data set filed under Cavia porcellus, the Selectivity ratio was found to be 2.7.

Source of the values: ChEMBL document CHEMBL1126970, “Development of 1,4-benzodiazepine cholecystokinin type B antagonists” (J Med Chem, 1993).
